20 molecules from patent US8343961B2, “Substituted heterocyclic compounds” (ArQule, Inc., priority 2009, dated 2013) can be followed below.

For one experiment, the target named is T1, Tec kinase (Homo sapiens, UniProt P42680).
T1 sequence (P42680 1-631): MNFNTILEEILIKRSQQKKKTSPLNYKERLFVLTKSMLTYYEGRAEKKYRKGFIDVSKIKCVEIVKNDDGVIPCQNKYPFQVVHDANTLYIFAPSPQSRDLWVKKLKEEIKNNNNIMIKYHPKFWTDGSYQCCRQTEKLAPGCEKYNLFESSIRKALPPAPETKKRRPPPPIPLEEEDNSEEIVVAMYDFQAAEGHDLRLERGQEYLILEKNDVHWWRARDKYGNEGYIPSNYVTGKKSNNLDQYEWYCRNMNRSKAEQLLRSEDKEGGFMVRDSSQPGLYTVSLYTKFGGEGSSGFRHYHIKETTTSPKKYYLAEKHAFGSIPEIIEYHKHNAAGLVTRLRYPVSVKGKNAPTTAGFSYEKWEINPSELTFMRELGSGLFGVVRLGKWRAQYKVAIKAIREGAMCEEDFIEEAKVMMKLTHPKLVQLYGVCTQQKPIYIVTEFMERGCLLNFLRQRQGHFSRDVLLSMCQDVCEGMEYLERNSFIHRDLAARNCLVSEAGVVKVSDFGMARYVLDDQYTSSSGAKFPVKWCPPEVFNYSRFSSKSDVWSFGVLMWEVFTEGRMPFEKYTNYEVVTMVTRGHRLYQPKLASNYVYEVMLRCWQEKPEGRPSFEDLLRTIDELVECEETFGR
In words: Tec Kinase Activity Assay. It counts as biochemical. The following applies: read-out: Tec % INH, at 30 uM. How it is done:
The disclosed compounds were assayed for their ability to inhibit the activity of Tec kinase. Nunc Maxisorb plates were coated with streptavidin by overnight incubation with 100 μL per well of 1 μg/mL Streptavidin in DPBS. Prior to the start of the experiment, the plates were washed with TBST (3×200 μL) and blocked for at least 1 hour by adding 150 μL of 5% BSA/TBST. The plates were washed with TBST (3×200 μL/well) and left dry immediately before the capture step.
The test articles and controls (Staurosporine and Sutent) were prepared using the following assay buffer @ 3× desired final concentration (50 mM Tris-HCl, 0.02 mg/mL BSA, 10 mM MgCl2, 0.1 mM Na3VO4, 1 mM EGTA, 75 μM ATP0.01% NP-40, 2 mM DTT in 10% glycerol/water). In a reaction plate were added rapidly 20 μL test article (or control) and 20 μL TEC 0.25 ng/4. The plate was incubated for 30 minutes. To the reaction plate was added 20 μL of Pyk-2.5 ng/μL. The plate was incubated at room temperature for two hours. From the reaction plate, 50 μL was transferred to the streptavidin coated plate. The capture plate was incubated at room temperature for 30 minutes then washed 6× with TBST. To the capture plate was added 100 μL/well of Cell Signaling anti-phospho tyrosine at a dilution of 1:3000 in 2% BSA/TBST. The plate was incubated for one hour at room temperature then washed 6× with TBST. To the capture plate was added 100 μL/well of Alkaline Phosphatase Tagged Goat anti Mouse Antibody at a dilution of 1:4000 in 2% BSA/TBST. The plate was incubated for one hour at room temperature then washed 6× with TBST. The fluorescent readout was initiated by the addition of 100 μL/well of Attophos reagent (6 mg/10 mL). The reading was done on the Perkin Elmer Envision system.

The target in the next experiment is RET kinase (Homo sapiens, UniProt P07949). The experiment in a line: RET Kinase Activity Assay. The format is biochemical. The following applies: read-out: Ret, % INH, at 30 uM. The procedure:
The disclosed compounds were assayed for their ability to inhibit the activity of RET kinase. Nunc Maxwasorb plates were coated with streptavidin by overnight incubation with 100 μL per well of 1 μg/mL Streptavidin in DPBS. Prior to the start of the experiment, the plates were washed with TBST (3×200 μL) and blocked for at least 1 hour by adding 150 μL of 5% BSA/TBST. The plates were washed with TBST (3×200 […]) and left dry immediately before the capture step.
The test articles and controls (Staurosporine and Sutent) were prepared using the following assay buffer @ 3× desired final concentration (50 mM […], 0.02 mg/mL BSA, 10 mM MgCl2, 0.1 mM Na3VO4, 1 mM EGTA, 75 μM ATP0.01% NP-40, 2 mM DTT in 10% glycerol/water). In a reaction plate, were added rapidly 20 μL test article (or control) and 20 μL RET (0.25 ng/4 final concentration). The plate was incubated for 15 minutes. To the reaction plate was added 20 μL of Pyk-2 (0.25 ng/4 final concentration). The plate was incubated at room temperature for one hour.
From the reaction plate, 50 μL was transferred to the streptavidin coated plate. The capture plate was incubated at room temperature for 30 minutes then washed 6× with TBST. To the capture plate was added 100 μL/well of Cell Signaling anti-phospho tyrosine at a dilution of 1:3000 in 2% BSA/TBST. The plate was incubated for one hour at room temperature then washed 6× with TBST. To the capture plate was added 100 μL/well of Alkaline Phosphatase Tagged Goat anti Mouse Antibody at a dilution of 1:4000 in 2% BSA/TBST. The plate was incubated for one hour at room temperature then washed 6× with TBST. The fluorescent readout was initiated by the addition of 100 μL/well of Attophos reagent (6 mg/10 mL). The reading was done on the Perkin Elmer Envision system.

RET kinase, sequence (P07949 29-1114): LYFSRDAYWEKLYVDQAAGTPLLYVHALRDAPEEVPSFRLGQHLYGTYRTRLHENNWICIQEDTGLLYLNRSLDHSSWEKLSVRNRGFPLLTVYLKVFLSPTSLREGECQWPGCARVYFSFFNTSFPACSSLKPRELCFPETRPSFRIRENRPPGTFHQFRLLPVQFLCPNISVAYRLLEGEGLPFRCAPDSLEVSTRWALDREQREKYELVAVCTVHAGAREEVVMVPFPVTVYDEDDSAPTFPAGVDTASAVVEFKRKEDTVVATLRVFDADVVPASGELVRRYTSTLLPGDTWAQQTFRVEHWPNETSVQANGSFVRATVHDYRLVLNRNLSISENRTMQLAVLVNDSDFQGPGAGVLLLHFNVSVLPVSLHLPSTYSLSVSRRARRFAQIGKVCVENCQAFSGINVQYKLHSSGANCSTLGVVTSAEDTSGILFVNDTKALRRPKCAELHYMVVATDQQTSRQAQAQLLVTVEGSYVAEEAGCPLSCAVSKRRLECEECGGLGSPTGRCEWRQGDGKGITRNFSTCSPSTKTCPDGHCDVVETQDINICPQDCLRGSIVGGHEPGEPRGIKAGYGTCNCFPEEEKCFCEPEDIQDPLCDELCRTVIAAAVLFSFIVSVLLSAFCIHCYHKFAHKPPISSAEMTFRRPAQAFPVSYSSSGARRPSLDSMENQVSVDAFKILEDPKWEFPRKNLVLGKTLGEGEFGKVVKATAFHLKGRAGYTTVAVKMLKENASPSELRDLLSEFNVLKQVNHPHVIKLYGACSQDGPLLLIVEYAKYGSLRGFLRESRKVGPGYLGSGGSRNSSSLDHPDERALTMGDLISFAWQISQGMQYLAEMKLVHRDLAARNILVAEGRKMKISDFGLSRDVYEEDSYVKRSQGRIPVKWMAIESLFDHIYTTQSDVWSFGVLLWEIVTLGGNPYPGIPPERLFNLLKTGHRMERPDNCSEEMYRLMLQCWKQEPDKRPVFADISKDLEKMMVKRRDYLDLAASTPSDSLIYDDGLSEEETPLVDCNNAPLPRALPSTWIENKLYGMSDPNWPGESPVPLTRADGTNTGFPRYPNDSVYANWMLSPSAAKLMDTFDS

Turning to `Nc1nc(N2CCN(Cc3ccc(Cl)cc3Cl)c3ccccc3C2)c2cn[nH]c2n1` [Compound 32, 4-[1-(2,4-dichlorobenzyl)-1,2,3,5-tetrahydro-4H-1,4-benzodiazepin-4-yl]-1H-pyrazolo[3,4-d]pyrimidin-6-amine], the inhibition at 30 µM at Tec kinase is 50 to 79%; on RET kinase, under 50%.
For `Cc1cccc(CN2CCN(c3nc(N)nc4[nH]cnc34)Cc3ccccc32)c1` [Compound 33, 6-[1-(3-methylbenzyl)-1,2,3,5-tetrahydro-4H-1,4-benzodiazepin-4-yl]-9H-purin-2-amine], the figures for the inhibition at 30 µM on Tec kinase and on RET kinase were under 50% and 50 to 79%, respectively.
As for `Nc1nc(N2CCN(CCCc3ccccc3)c3ccccc3C2)c2nc[nH]c2n1` [Compound 40, 6-[1-(3-phenylpropyl)-1,2,3,5-tetrahydro-4H-1,4-benzodiazepin-4-yl]-9H-purin-2-amine], the values for the inhibition at 30 µM on Tec kinase and on RET kinase were over 79% and 50 to 79%, respectively.
As to `Nc1nc(N2CCN(Cc3ccccc3Cl)c3ccccc3C2)c2cn[nH]c2n1` [Compound 14, 4-[1-(2-chlorobenzyl)-1,2,3,5-tetrahydro-4H-1,4-benzodiazepin-4-yl]-1H-pyrazolo[3,4-d]pyrimidin-6-amine], the inhibition at 30 µM on Tec kinase was 50 to 79%; on RET kinase, under 50%.
As for `COc1ccc(OC)c(CN2CCN(c3nc(N)nc4[nH]ncc34)Cc3ccccc32)c1` [Compound 36, 4-[1-(2,5-dimethoxybenzyl)-1,2,3,5-tetrahydro-4H-1,4-benzodiazepin-4-yl]-1H-pyrazolo[3,4-d]pyrimidin-6-amine], the inhibition at 30 µM was 50 to 79% on Tec kinase and under 50% on RET kinase.
For `COc1cccc(CN2CCN(c3nc(N)nc4[nH]ncc34)Cc3ccccc32)c1` [Compound 1, 4-[1-(3-methoxybenzyl)-1,2,3,5-tetrahydro-4H-1,4-benzodiazepin-4-yl]-1H-pyrazolo[3,4-d]pyrimidin-6-amine] the same measures were over 79% and 50 to 79%.
As for `COc1ccc(CN2CCN(c3nc(N)nc4[nH]ncc34)Cc3ccccc32)cc1OC` [Compound 28, 4-[1-(3,4-dimethoxybenzyl)-1,2,3,5-tetrahydro-4H-1,4-benzodiazepin-4-yl]-1H-pyrazolo[3,4-d]pyrimidin-6-amine], the inhibition at 30 µM at Tec kinase was 50 to 79%; at RET kinase it was under 50%.
Take `Nc1nc(N2CCN(CCCc3ccccc3)c3ccccc3C2)c2cn[nH]c2n1` [Compound 41, 4-[1-(3-phenylpropyl)-1,2,3,5-tetrahydro-4H-1,4-benzodiazepin-4-yl]-1H-pyrazolo[3,4-d]pyrimidin-6-amine]: the inhibition at 30 µM was 50 to 79% at Tec kinase and under 50% on RET kinase.
For the molecule `COc1ccc(OC)c(CN2CCN(c3nc(N)nc4[nH]cnc34)Cc3ccccc32)c1` [Compound 35, 6-[1-(2,5-dimethoxybenzyl)-1,2,3,5-tetrahydro-4H-1,4-benzodiazepin-4-yl]-9H-purin-2-amine], the inhibition at 30 µM is 50 to 79% on Tec kinase and under 50% at RET kinase.
For `Nc1nc(N2CCN(Cc3ccc(F)cc3F)c3ccccc3C2)c2cn[nH]c2n1` [Compound 38, 4-[1-(2,4-difluorobenzyl)-1,2,3,5-tetrahydro-4H-1,4-benzodiazepin-4-yl]-1H-pyrazolo[3,4-d]pyrimidin-6-amine], the inhibition at 30 µM on Tec kinase was 50 to 79%; on RET kinase it was under 50%.
For `Cc1ccc(CCCN2CCN(c3nc(N)nc4[nH]ncc34)Cc3ccccc32)cc1` [Compound 45, 4-{1-[3-(4-methylphenyl)propyl]-1,2,3,5-tetrahydro-4H-1,4-benzodiazepin-4-yl}-1H-pyrazolo[3,4-d]pyrimidin-6-amine], the values for the inhibition at 30 µM at Tec kinase and on RET kinase were over 79% and 50 to 79%, respectively.
For `Nc1nc(N2CCN(Cc3cccc(C(F)(F)F)c3)c3ccccc3C2)c2cn[nH]c2n1` [Compound 21, 4-{1-[3-(trifluoromethyl)benzyl]-1,2,3,5-tetrahydro-4H-1,4-benzodiazepin-4-yl}-1H-pyrazolo[3,4-d]pyrimidin-6-amine] the same measures were 50 to 79% and under 50%.
For `Nc1nc(N2CCN(Cc3ccc(Cl)cc3Cl)c3ccccc3C2)c2nc[nH]c2n1` [Compound 31, 6-[1-(2,4-dichlorobenzyl)-1,2,3,5-tetrahydro-4H-1,4-benzodiazepin-4-yl]-9H-purin-2-amine], the inhibition at 30 µM at Tec kinase and at RET kinase was under 50% in each case.
For `Nc1nc(N2CCN(Cc3ccc(F)cc3)c3ccccc3C2)c2nc[nH]c2n1` [Compound 15, 6-[1-(4-fluorobenzyl)-1,2,3,5-tetrahydro-4H-1,4-benzodiazepin-4-yl]-9H-purin-2-amine], the inhibition at 30 µM at Tec kinase and on RET kinase was 50 to 79% each time.
Turning to `Cc1ccc(CCCN2CCN(c3nc(N)nc4[nH]cnc34)Cc3ccccc32)cc1` [Compound 44, 6-{1-[3-(4-methylphenyl)propyl]-1,2,3,5-tetrahydro-4H-1,4-benzodiazepin-4-yl}-9H-purin-2-amine], the inhibition at 30 µM on Tec kinase and at RET kinase was under 50% each time.
Consider `Nc1nc(N2CCN(Cc3cccc(C(F)(F)F)c3)c3ccccc3C2)c2nc[nH]c2n1` [Compound 20, 6-{1-[3-(trifluoromethyl)benzyl]-1,2,3,5-tetrahydro-4H-1,4-benzodiazepin-4-yl}-9H-purin-2-amine], for which the inhibition at 30 µM was 50 to 79% at Tec kinase and under 50% at RET kinase.
For `COc1ccccc1CN1CCN(c2nc(N)nc3[nH]cnc23)Cc2ccccc21` [Compound 9, 6-[1-(2-methoxybenzyl)-1,2,3,5-tetrahydro-4H-1,4-benzodiazepin-4-yl]-9H-purin-2-amine] the same measures were 50 to 79% and 50 to 79%.
Turning to `Cc1ccc(CN2CCN(c3nc(N)nc4[nH]cnc34)Cc3ccccc32)cc1` [Compound 26, 6-[1-(4-methylbenzyl)-1,2,3,5-tetrahydro-4H-1,4-benzodiazepin-4-yl]-9H-purin-2-amine], the inhibition at 30 µM at Tec kinase was under 50%; on RET kinase it was 50 to 79%.
Regarding `Nc1nc(N2CCN(CCCc3cccc(Cl)c3)c3ccccc3C2)c2nc[nH]c2n1` [Compound 7, 6-{1-[3-(3-chlorophenyl)propyl]-1,2,3,5-tetrahydro-4H-1,4-benzodiazepin-4-yl}-9H-purin-2-amine], the inhibition at 30 µM at Tec kinase was 50 to 79%; at RET kinase, under 50%.
`COc1ccccc1CN1CCN(c2nc(N)nc3[nH]ncc23)Cc2ccccc21` [Compound 10, 4-[1-(2-methoxybenzyl)-1,2,3,5-tetrahydro-4H-1,4-benzodiazepin-4-yl]-1H-pyrazolo[3,4-d]pyrimidin-6-amine]: the inhibition at 30 µM was over 79% on Tec kinase and under 50% at RET kinase.
